The viability is a read-out of living cells in per cent, often relative to untreated cells.

The series is described as follows: in vitro. The following applies: human, hela cells, % viability.

Take `CN(C)CCCN1C(=O)C(O)=C(C(=O)c2ccccc2)C1c1ccccn1` (stereo not shown) [CBK287778]: the viability at 28.5 h, 10 µM stood at 110%.
Consider `O=S(=O)(Nc1nccnc1-c1cccs1)c1ccccc1Cl` [CBK050775], for which the viability at 28.5 h, 10 µM was 94.9%.
In the case of `CC(C)Nc1nccnc1OCc1ccsc1` [CBK115646], the viability at 28.5 h, 10 µM turned out to be 103%.
Take `O=C(O)COc1c(Cl)cc(C=C2C(=O)NC(=O)NC2=O)cc1Cl` [CBK263377]: the viability at 28.5 h, 10 µM (bulk resorufin, single well) was determined as 83%.
With `Cc1ccc(S(=O)(=O)NCCc2nc3ccccc3n2C)s1` [CBK281398], the viability at 28.5 h, 10 µM came out at 81.5%.
Same read-out and setting: for `COc1cc(CN2CCN(C(=O)c3cccc(Cl)c3)CC2)cc(OC)c1OC` [CBK074530] the value was 97.1%; for `O=C(NC(=S)Nc1ccc2oc(-c3ccncc3)nc2c1)c1cc(Br)ccc1Cl` [CBK264343], 87.8%.
`COCc1nc(NCCCn2c(C)cccc2=O)cc([C@H]2C[C@H](N)C2)n1` [CBK307337]: the viability at 28.5 h, 10 µM came to 103%.
Same read-out and setting: for `OCc1nc2cc3cn[nH]c3cc2[nH]1` [CBK016203] the value was 86.5%.
The same measure, in the same setting: for `O=C(Nc1cccnc1)c1cnc2cc(Cl)ccc2c1O` [CBK107353] the value was 82.6%; for `CCOC(=O)C1(Cc2ccccc2-c2ccncc2)CCNCC1` [CBK282297], 88.8%; for `C[C@@H]1CN(C(=O)OCCn2cccc2)C[C@H](C)O1` [CBK200123], 82.2%.
Take `CCOc1cccc2cc(C(=O)N3CCN(Cc4ccccc4)CC3)c(=O)oc12` [CBK270259C]: the viability at 28.5 h, 10 µM is 74.3%.
On the same count and under the same terms, for `CC(=O)N[C@H](Cc1c[nH]c2ccccc12)C(=O)N1CCN(c2ccc(C)cc2)CC1` [CBK091333] the value was 91.1%; for `Cc1nc2c(c(=O)[nH]1)CCN(Cc1[nH]c3ccccc3c1C)C2` [CBK283995], 93%.
The same measure, in the same setting: for `Cc1sc2nc(SCc3nc(-c4ccccc4)no3)n(-c3ccccc3)c(=O)c2c1C` [CBK266492] the value was 110%; for `Cc1ccc(-c2nccnc2OCc2ccco2)cc1C` [CBK106863], 90.2%.
The same measure, in the same setting: for `C(=N\c1ccc2c(c1)OCCOCCOc1cc(/N=C/c3ccccc3)ccc1OCCOCCO2)/c1ccccc1` [CBK261388] the value was 100%; for `O=C(Cc1ccccc1)N1CCN(CCCc2ccccc2)CC1` [CBK263451G], 96.8%.
With `Cn1cnnc1SCC(=O)Nc1c(F)cccc1F` [CBK295150], the viability at 28.5 h, 10 µM was determined as 88.2%.
Same read-out and setting: for `O=C(NC1CC1)c1cc(C2CCCN(Cc3cccc(F)c3)C2)no1` (stereo not shown) [CBK284588] the value was 99%.
Regarding `O=C(NCCCO)C1CCCN(S(=O)(=O)c2ccc3ccccc3c2)C1` (stereo not shown) [CBK270141], the viability at 28.5 h, 10 µM worked out at 88.3%.
Still for that read-out and setting: for `COc1ccc(-c2ccc3c(c2)C(=O)N2CC[C@H](NC(=O)C4CCCC4)[C@H]2C(=O)N3)cc1` [CBK289330] the value was 108%.
Take `Cc1ccc2nc(-c3ccncc3)cc(C(=O)Nc3ccc(C(F)(F)F)cc3)c2c1` [CBK267732]: the viability at 28.5 h, 10 µM stood at 91.6%.
Same read-out and setting: for `COc1ccc2c(c1)cc(C(=O)NCc1cncn1CC(C)C)n2C` [CBK307193] the value was 89.3%; for `NCCc1nc(-c2ccccc2)c2cnccn12` [CBK035705], 101%.
On to `COc1ccc(C(=O)N[C@H]2CO[C@H]3[C@@H]2OC[C@H]3OC(=O)Nc2ccccc2)cc1` [CBK289463], for which the viability at 28.5 h, 10 µM amounted to 103%.
`CC(=O)Nc1ccc(OCC(O)Cn2cnc3cc(C)c(C)cc32)cc1` (stereo not shown) [CBK304545]: the viability at 28.5 h, 10 µM was 93.3%.
In the case of `Cc1nc2cc(-c3nccn3C)nn2c(N2CCN(c3ccc(O)cc3)CC2)c1C` [CBK286427], the viability at 28.5 h, 10 µM was 92.8%.
`Cc1cc2c(o1)c1cnn(CC(=O)N3CCCCCC3)c(=O)c1n2C` [CBK284219]: the viability at 28.5 h, 10 µM amounted to 81.2%.
Same read-out and setting: for `CSc1nc(Cl)c(-c2ccccc2)c(N(C)C)n1` [CBK023169] the value was 96.9%; for `Nc1cccc(-c2nccnc2NCc2cccs2)c1` [CBK037537], 104%; for `O=C(Nc1cccnc1)c1cc2cc(Cl)ccc2[nH]1` [CBK107261], 88.7%.
Still for that read-out and setting: for `O=C(COc1ccccc1)N1CCCC1c1cccc(Cc2ccc(F)cc2)n1` (stereo not shown) [CBK286230] the value was 102%.
For the molecule `Cc1cc(C)n(C(C)CC(=O)N2CCN(C)CC2c2ccccc2)n1` (stereo not shown) [CBK282014], the viability at 28.5 h, 10 µM amounted to 92.2%.
For `CC1CCN(C(=S)Nc2ccccc2)CC(C)(C)C1` (stereo not shown) [CBK006185], the viability at 28.5 h, 10 µM worked out at 93.9%.
For `CCc1ccc2c(c1)C(CCNC(=O)CCc1ccsc1)C(=O)N2` (stereo not shown) [CBK305063], the viability at 28.5 h, 10 µM was determined as 94.5%.
Same read-out and setting: for `Cc1c(C2CC(C(F)(F)F)n3nccc3N2)cnn1C` (stereo not shown) [CBK288015] the value was 93.9%; for `CN(C)CC1COc2ccccc2CN1C(=O)Cc1ccccc1F` (stereo not shown) [CBK285080], 89.5%; for `O=C(CN1C(=O)N2CCCN=C2c2ccccc21)N1CCCC1` [CBK284419], 88.4%.
With `CN(C)S(=O)(=O)N(CC(=O)Nc1ccccc1C(F)(F)F)c1ccccc1` [CBK268665], the viability at 28.5 h, 10 µM worked out at 102%.
Same read-out and setting: for `CCC1CCCCN1C(=O)c1cc2ccccc2o1` (stereo not shown) [CBK078549] the value was 80.1%.
On the same count and under the same terms, for `Cc1cccc(NC(=O)C(c2ccccc2)N2CCOCC2)c1` (stereo not shown) [CBK269331] the value was 103%; for `COC[C@@H]1CCCN1S(=O)(=O)c1cccs1` [CBK045239], 96%; for `CCn1cc(C2CN(S(=O)(=O)c3cccc(COC)c3)CCO2)cn1` (stereo not shown) [CBK304222], 93.7%.
Still for that read-out and setting: for `Cc1ccc(CNS(=O)(=O)N(C)C)cc1` [CBK091778] the value was 80.9%; for `CC(Nc1nc(-c2ccc([N+](=O)[O-])cc2)nc2ccccc12)c1ccccc1` (stereo not shown) [CBK264767], 88.3%; for `N#CCCN(C(=O)NCc1cccc2ccccc12)C1CCCCC1` [CBK156353], 89%.
As to `CC(C)(C)c1n[nH]c(C2CN(C(=O)CCc3ccco3)CCO2)n1` (stereo not shown) [CBK305204], the viability at 28.5 h, 10 µM came to 81.5%.
Same read-out and setting: for `O=C(Cn1c(-c2cccs2)n[nH]c1=S)N1CCC(c2nc3cc(Cl)ccc3o2)CC1` [CBK297765] the value was 95%; for `CC(C)(C)OC(=O)N1CCC(COc2ccc(-c3ccncc3)cn2)CC1` [CBK161777], 91.8%.
Turning to `COc1ccc(C)cc1NC(=O)CN(c1ccc(F)cc1)S(=O)(=O)c1ccc(C)cc1` [CBK264122], the viability at 28.5 h, 10 µM was 101%.
With `Cc1ccc(S(=O)(=O)N2CCC(OC(N)=O)CC2)cc1` [CBK003369], the viability at 28.5 h, 10 µM amounted to 106%.
Still for that read-out and setting: for `CC1CN(CCCCNCc2cn(C)nc2-c2cccnc2)CC(C)O1` (stereo not shown) [CBK304453] the value was 92.6%.
Same read-out and setting: for `CN(C(=O)c1ccccc1C(=O)O)C1CC(C)(C)NC(C)(C)C1` [CBK287117] the value was 98.2%; for `CCN(CC)C(=O)CN(CCc1ccc(OC)c(OC)c1)C(=O)NCc1cc(C)on1` [CBK160581], 96.1%; for `O=C(c1ccc2c(c1)CCO2)N1CCC(S(=O)(=O)c2ccc(-c3ccccc3)cc2)CC1` [CBK131957], 109%.
With `CC1CCN(c2nc3nonc3nc2Nc2ccc3c(c2)OCO3)CC1` [CBK077551], the viability at 28.5 h, 10 µM came to 98.8%.
